Laboratory results as given in patent US20040110775A1, “Cyclin dependent kinase inhibiting purine derivatives” (priority 2001, published 2004).
Read-outs that look alike come from different tables or passages of the source.

Tests used:
[1] = disclosed in WO 99/02162; cited from earlier work
[2] = test system: CDK1(cdc2)/cyclin B complexes; conditions: disclosed in WO 99/02162; cited from earlier work
p34 cdc2(CDK1)/cyclinB = test: CDK assay: histone H1 phosphorylation with [32P]ATP by cdc2/cyclinB kinase; format: biochemical, starfish (Marthasterias glacialis); conditions: read-out: IC50 ± SD CDK1
Protocol: Assays are available for testing the inhibitory activity of the compounds of interest against a range of CDK/cyclin complexes, including CDK1/cyclin A, CDK1/cyclin B, CDK1/cyclin F, CDK2/cyclin A, CDK2/cyclin E, CDK4/cyclin D, CDK5/35 and CDK6/cyclin D3. […]
(§1) By way of example, however, a typical protocol is summarised below.
Buffer C (containing 6 mM β-glycerophosphate, 30 mM nitrophenyl phosphate, 25 mM MOPS pH 7.0, 5 mM EGTA, 15 mM MgCl2, […] and 0.1 mM sodium orthovanadate) is made up as follows:
Affinity purified p34 cdc2(CDK1)/cyclinB from M-phase starfish (Marthasterias glacialis) in 20% glycerol is stored at −80° C. in chest freezer
Histone H1 (type III-S (Sigma) 4° C.) 5 mg/ml in buffer C.
[^32P]ATP 75 mM: Make up using (multiples of) the following proportions:
DMSO cannot exceed 1% in the assay mixture. Inhibitors are added at 1/10 final assay volume and 10× final strength. DMSO stocks must therefore be diluted to 10× final desired concentration in ≦10% DMSO, ≧90% buffer C.
All reagents (except DMSO stocks) should be kept on ice until assay initiated.
Start reaction in each tube at 30 second intervals b)y adding
5 ml [^32P]ATP vortexing and placing in rack in waterbath at 30° C.
Terminate reaction after 10 min at 30 second intervals in tubes in same order by removing […] reaction mix and spotting onto appropriately labelled filter, allowing to dry for 20-30 seconds and transferring to stirring 1% phosphoric acid.
Blank incubation is performed as above but without histone (add […] buffer C instead) Washing blank is […] ATP added directly to filter.
Wash filters 5-6 times 5 min each
Dry the filters on paper towel
Count in mini scintillation vials with 5 ml scintillant.
NB. The assay can be simplified by making up stock reaction mix as follows:
(1 part cdc2/cyclinB, 16 parts buffer C, 5 parts histone H1)×Number of assay tubes+1 and add […] to each assay tube containing […] buffer C±inhibitor.
It is still necessary, however, to make up assay blank (i.e. without histone) separately.

CDK2 = CDK2 (Homo sapiens, UniProt P24941); test: Inhibition of CDK2 (CDK inhibition assay); format: biochemical; conditions: values in nM; read-out: IC50 ± SD CDK2
Source text: Assays are available for testing the inhibitory activity of the compounds of interest against a range of CDK/cyclin complexes, including CDK1/cyclin A, CDK1/cyclin B, CDK1/cyclin F, CDK2/cyclin A, CDK2/cyclin E, CDK4/cyclin D, CDK5/35 and CDK6/cyclin D3.
Apart from reference compounds, the compounds listed are accompanied by an NU reference or identification code number.
as §1

CDK4 = CDK4 (Homo sapiens, UniProt P11802); conditions: cited from earlier work
CDK4, sequence (P11802 whole entry, species assumed): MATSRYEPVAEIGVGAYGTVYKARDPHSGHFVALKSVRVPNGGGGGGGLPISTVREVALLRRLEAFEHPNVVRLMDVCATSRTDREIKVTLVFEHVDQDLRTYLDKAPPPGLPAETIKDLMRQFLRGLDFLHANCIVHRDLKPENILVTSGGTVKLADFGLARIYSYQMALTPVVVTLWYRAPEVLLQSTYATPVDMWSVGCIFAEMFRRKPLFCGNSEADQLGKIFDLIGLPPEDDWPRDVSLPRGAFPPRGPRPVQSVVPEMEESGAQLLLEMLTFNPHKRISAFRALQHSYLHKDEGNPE
CDK4, sequence (P24385 whole entry partner, species assumed): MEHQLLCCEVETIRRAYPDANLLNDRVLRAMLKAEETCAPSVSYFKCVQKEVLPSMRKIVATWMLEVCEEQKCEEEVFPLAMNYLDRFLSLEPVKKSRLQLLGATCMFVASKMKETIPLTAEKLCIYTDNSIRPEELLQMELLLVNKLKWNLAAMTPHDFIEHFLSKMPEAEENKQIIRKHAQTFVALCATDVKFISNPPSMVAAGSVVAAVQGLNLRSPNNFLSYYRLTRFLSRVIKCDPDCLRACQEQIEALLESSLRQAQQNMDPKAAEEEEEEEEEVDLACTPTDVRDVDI

CDK6 = CDK6 (Homo sapiens, UniProt Q00534); conditions: cited from earlier work
CDK6, sequence (Q00534 whole entry, species assumed): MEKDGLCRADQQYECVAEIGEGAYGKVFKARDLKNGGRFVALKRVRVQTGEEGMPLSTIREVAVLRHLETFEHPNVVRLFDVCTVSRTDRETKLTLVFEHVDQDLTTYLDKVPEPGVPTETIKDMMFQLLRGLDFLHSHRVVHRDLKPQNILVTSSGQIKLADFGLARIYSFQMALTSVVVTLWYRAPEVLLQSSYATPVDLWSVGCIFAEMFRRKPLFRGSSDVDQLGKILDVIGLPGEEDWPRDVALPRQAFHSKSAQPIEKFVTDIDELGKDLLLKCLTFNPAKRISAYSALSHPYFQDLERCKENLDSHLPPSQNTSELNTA
CDK6, sequence (P30281 whole entry partner, species assumed): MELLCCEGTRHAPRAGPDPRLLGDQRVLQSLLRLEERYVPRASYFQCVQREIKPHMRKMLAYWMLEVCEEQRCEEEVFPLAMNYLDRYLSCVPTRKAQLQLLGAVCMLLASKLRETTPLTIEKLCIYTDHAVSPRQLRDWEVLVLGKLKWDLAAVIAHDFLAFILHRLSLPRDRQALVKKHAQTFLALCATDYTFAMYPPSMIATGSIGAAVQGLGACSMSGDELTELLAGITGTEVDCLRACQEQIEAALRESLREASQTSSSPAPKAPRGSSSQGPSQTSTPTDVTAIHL

[3] = test system: many common kinases other than CDK's; conditions: cited from earlier work

| SMILES | IC50 (CDK2) [nM] | IC50 (p34 cdc2(CDK1)/cyclinB; values in nM) [µM] | further results |
| --- | --- | --- | --- |
| Nc1nc(OCC2CCCCC2)c2nc[nH]c2n1 [NU2058, 2-Amino-O^6-cyclohexylmethylpurine] | – | – | cytotoxicity [1]: cytotoxic; inhibitory activity against CDK1(cdc2)/cyclin B complexes [2]: very high inhibitory activity, comparable to that of olomoucine; IC50 (p34 cdc2(CDK1)/cyclinB; values given in μM): 7 ± 0.7 µM |
| O=S(=O)(Nc1ccccn1)c1ccc(Nc2nc(OCC3CCCCC3)c3nc[nH]c3n2)cc1 [NU6154, 4-(6-Cyclohexylmethoxy-9H-purin-2-ylamino)-(N-pyridin-2-yl)benzenesulfonamide] | 27 ± 2 | 0.02 ± 0.006 | – |
| CC1CCCCC1COc1nc(Nc2ccc(S(N)(=O)=O)cc2)nc2[nH]cnc12 (stereo not drawn) [NU6158, 4-[6-(2-Methyl-cyclohexylmethoxy)-9H-purin-2-ylamino]benzenesulfonamide] | 4 ± 0.3 | 0.006 ± 0.001 | – |
| Cc1cc(NS(=O)(=O)c2ccc(Nc3nc(OCC4CCCCC4)c4nc[nH]c4n3)cc2)nc(C)n1 [NU6160, 4-(6-Cyclohexylmethoxy-9H-purin-2-ylamino)-N-(2,6dimethylpyrimidin-4-yl)-benzenesulfonamide] | 33 ± 6 | 0.028 ± 0.002 | – |
| NS(=O)(=O)c1ccc(Nc2nc(OCC3CC=CCC3)c3nc[nH]c3n2)cc1 (stereo not drawn) [NU6162, 4-[6-(Cyclohex-3-enylmethoxy)-9H-purin-2ylamino]-benzenesulfonamide] | 10 ± 1 | 0.021 ± 0.004 | – |
| O=S(=O)(NCC(F)(F)F)c1ccc(Nc2nc(OCC3CCCCC3)c3nc[nH]c3n2)cc1 [NU6163, 4-(6-Cyclohexylmethoxy-9H-purin-2-ylamino)-N-(2,2,2-trifluoroethyl)-benzenesulfonamide] | 51 ± 16 | 0.066 ± 0.005 | – |
| NC(=O)Cc1ccc(Nc2nc(OCC3CCCCC3)c3nc[nH]c3n2)cc1 [NU6164, 2-[4-(6-Cyclohexylmethoxy-9H-purin-2-ylamino)-phenyl]acetamide] | 132 ± 20 | 0.136 ± 0.022 | – |
| NS(=O)(=O)c1ccc(Nc2nc(OCC3CCCC3)c3nc[nH]c3n2)cc1 [NU6166, 4-[6-Cyclopentylmethoxy-9H-purin-2-ylamino)-benzenesulfonamide] | 7 ± 1 | 0.014 ± 0.003 | – |
| C[C@H](O)CNS(=O)(=O)c1ccc(Nc2nc(OCC3CCCCC3)c3nc[nH]c3n2)cc1 [NU6167, 4-(6-Cyclohexylmethoxy-9H-purin-2-ylamino)-N-(2-hydroxypropyl)benzenesulfonamide] | 6 ± 1 | 0.009 ± 0.0002 | – |
| Cn1cnc2c(NCc3ccccc3)nc(NCCO)nc21 [Olomoucine, 2-(2-hydroxyethylamino)-6-benzylamino-9-methyl-purine] | – | – | activity against CDK4 (CDK4): neither has been found to be active; activity against CDK6 (CDK6): neither has been found to be active; inhibitory activity in relation to many common kinases other than CDK's [3]: total lack of inhibitory activity |
| CC[C@H](CO)Nc1nc(NCc2ccccc2)c2ncn(C(C)C)c2n1 [roscovitine, 6-(benzylamino)-2(R)-[{1-(hydroxy-methyl)propyl}amino]-9-isopropylpurine] | – | – | activity against CDK4 (CDK4): neither has been found to be active; activity against CDK6 (CDK6): neither has been found to be active |
